Data as given in ChEMBL document CHEMBL1141655, “Structure-activity relationships of Bak derived peptides: affinity and specificity modulations by amino acid replacement” (Eur J Med Chem, 2008).
Non-standard residues stand in square brackets, D forms with d. Residues, ends and D or L forms follow the SMILES beside them. Phe(4-Cl) = N[C@@H](Cc1ccc(Cl)cc1)C(=O)O; 2Nal = N[C@@H](Cc1ccc2ccccc2c1)C(=O)O

Target: Bcl-2-like protein 1 (Homo sapiens, UniProt Q07817)
Test: Binding affinity to recombinant Bcl-XL expressed in Escherichia coli BL21 by fluorescence polarization assay

Sequence of Bcl-2-like protein 1 (Q07817 whole entry): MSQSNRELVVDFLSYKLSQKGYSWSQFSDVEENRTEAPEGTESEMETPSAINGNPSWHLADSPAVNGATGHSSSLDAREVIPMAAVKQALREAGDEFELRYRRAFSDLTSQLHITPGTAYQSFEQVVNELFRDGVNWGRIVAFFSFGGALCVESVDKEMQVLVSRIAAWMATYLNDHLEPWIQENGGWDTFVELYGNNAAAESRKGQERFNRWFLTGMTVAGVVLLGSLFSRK

Compound | EC50 [µM]
CC[C@H](C)[C@H](NC(=O)[C@H](C)NC(=O)[C@H](CC(C)C)NC(=O)[C@H](CCC(N)=O)NC(=O)[C@H](CCCNC(=N)N)NC(=O)CNC(=O)[C@@H](NC(=O)[C@H](CCC(N)=O)NC(=O)CN)C(C)C)C(=O)N[C@H](C(=O)NCC(=O)N[C@@H](CC(=O)O)C(=O)N[C@@H](CC(=O)O)C(=O)N[C@@H](CCC(=O)O)C(=O)N[C@@H](CC(N)=O)C(=O)N[C@@H](CCCNC(=N)N)C(=O)O)[C@@H](C)CC | > 10
CC[C@H](C)[C@H](NC(=O)[C@H](C)NC(=O)[C@H](CC1CCCCC1)NC(=O)[C@H](CCC(N)=O)NC(=O)[C@H](CCCNC(=N)N)NC(=O)CNC(=O)[C@@H](NC(=O)[C@H](CCC(N)=O)NC(=O)CN)C(C)C)C(=O)N[C@H](C(=O)NCC(=O)N[C@@H](CC(=O)O)C(=O)N[C@@H](CC(=O)O)C(=O)N[C@H](C(=O)N[C@@H](CC(N)=O)C(=O)N[C@@H](CCCNC(=N)N)C(=O)O)[C@@H](C)CC)[C@@H](C)CC | 0.219
CC[C@H](C)[C@H](NC(=O)[C@H](C)NC(=O)[C@H](CC(C)C)NC(=O)[C@H](CCC(N)=O)NC(=O)[C@H](CCCN=C(N)N)NC(=O)CNC(=O)[C@@H](NC(=O)[C@H](CCC(N)=O)NC(=O)CN)C(C)C)C(=O)N[C@@H](Cc1ccc2ccccc2c1)C(=O)NCC(=O)N[C@@H](CC(=O)O)C(=O)N[C@@H](CC(=O)O)C(=O)N[C@H](C(=O)N[C@@H](CC(N)=O)C(=O)N[C@@H](CCCN=C(N)N)C(=O)O)[C@@H](C)CC | 1.3
CC[C@H](C)[C@H](NC(=O)[C@H](C)NC(=O)[C@H](Cc1cccc(Cl)c1)NC(=O)[C@H](CCC(N)=O)NC(=O)[C@H](CCCN=C(N)N)NC(=O)CNC(=O)[C@@H](NC(=O)[C@H](CCC(N)=O)NC(=O)CN)C(C)C)C(=O)N[C@H](C(=O)NCC(=O)N[C@@H](CC(=O)O)C(=O)N[C@@H](CC(=O)O)C(=O)N[C@H](C(=O)N[C@@H](CC(N)=O)C(=O)N[C@@H](CCCN=C(N)N)C(=O)O)[C@@H](C)CC)[C@@H](C)CC | 0.359
CC[C@H](C)[C@H](NC(=O)[C@H](C)NC(=O)[C@H](Cc1ccc2ccccc2c1)NC(=O)[C@H](CCC(N)=O)NC(=O)[C@H](CCCNC(=N)N)NC(=O)CNC(=O)[C@@H](NC(=O)[C@H](CCC(N)=O)NC(=O)CN)C(C)C)C(=O)N[C@H](C(=O)NCC(=O)N[C@@H](CC(=O)O)C(=O)N[C@@H](CC(=O)O)C(=O)N[C@@H](Cc1ccccc1)C(=O)N[C@@H](CC(N)=O)C(=O)N[C@@H](CCCNC(=N)N)C(=O)O)[C@@H](C)CC (H-GQVGRQ[2Nal]AIIGDDFNR-OH) | 0.054
CC[C@H](C)[C@H](NC(=O)[C@H](C)NC(=O)[C@H](Cc1cccnc1)NC(=O)[C@H](CCC(N)=O)NC(=O)[C@H](CCCN=C(N)N)NC(=O)CNC(=O)[C@@H](NC(=O)[C@H](CCC(N)=O)NC(=O)CN)C(C)C)C(=O)N[C@H](C(=O)NCC(=O)N[C@@H](CC(=O)O)C(=O)N[C@@H](CC(=O)O)C(=O)N[C@H](C(=O)N[C@@H](CC(N)=O)C(=O)N[C@@H](CCCN=C(N)N)C(=O)O)[C@@H](C)CC)[C@@H](C)CC | 9.74
CC[C@H](C)[C@H](NC(=O)[C@H](C)NC(=O)[C@H](CC(C)C)NC(=O)[C@H](CCC(N)=O)NC(=O)[C@H](CCCNC(=N)N)NC(=O)CNC(=O)[C@@H](NC(=O)[C@H](CCC(N)=O)NC(=O)CN)C(C)C)C(=O)N[C@H](C(=O)NCC(=O)N[C@@H](CC(=O)O)C(=O)N[C@@H](CC(=O)O)C(=O)N[C@@H](Cc1cnc[nH]1)C(=O)N[C@@H](CC(N)=O)C(=O)N[C@@H](CCCNC(=N)N)C(=O)O)[C@@H](C)CC | 5.12
CC[C@H](C)[C@H](NC(=O)[C@H](C)NC(=O)[C@H](CC(C)C)NC(=O)[C@H](CCC(N)=O)NC(=O)[C@H](CCCN=C(N)N)NC(=O)CNC(=O)[C@@H](NC(=O)[C@H](CCC(N)=O)NC(=O)CN)C(C)C)C(=O)N[C@H](C(=O)NCC(=O)N[C@@H](CC(=O)O)C(=O)N[C@@H](CC(=O)O)C(=O)N[C@@H](Cc1ccc(O)cc1)C(=O)N[C@@H](CC(N)=O)C(=O)N[C@@H](CCCN=C(N)N)C(=O)O)[C@@H](C)CC | 0.159
CC[C@H](C)[C@H](NC(=O)[C@H](C)NC(=O)[C@H](CC(C)C)NC(=O)[C@H](CCC(N)=O)NC(=O)[C@H](CCCN=C(N)N)NC(=O)CNC(=O)[C@@H](NC(=O)[C@H](CCC(N)=O)NC(=O)CN)C(C)C)C(=O)N[C@H](C(=O)NCC(=O)N[C@@H](CC(=O)O)C(=O)N[C@@H](CC(=O)O)C(=O)N[C@@H](C)C(=O)N[C@@H](CC(N)=O)C(=O)N[C@@H](CCCN=C(N)N)C(=O)O)[C@@H](C)CC | 93
CCCC[C@H](NC(=O)[C@H](CC(=O)O)NC(=O)[C@H](CC(=O)O)NC(=O)CNC(=O)[C@@H](NC(=O)[C@@H](NC(=O)[C@H](C)NC(=O)[C@H](CC(C)C)NC(=O)[C@H](CCC(N)=O)NC(=O)[C@H](CCCN=C(N)N)NC(=O)CNC(=O)[C@@H](NC(=O)[C@H](CCC(N)=O)NC(=O)CN)C(C)C)[C@@H](C)CC)[C@@H](C)CC)C(=O)N[C@@H](CC(N)=O)C(=O)N[C@@H](CCCN=C(N)N)C(=O)O | 0.118
CC[C@H](C)[C@H](NC(=O)[C@H](CC(=O)O)NC(=O)[C@H](CC(=O)O)NC(=O)CNC(=O)[C@H](Cc1ccc(O)cc1)N(C)C(=O)[C@@H](NC(=O)[C@H](C)NC(=O)[C@H](CC(C)C)NC(=O)[C@H](CCC(N)=O)NC(=O)[C@H](CCCNC(=N)N)NC(=O)CNC(=O)[C@@H](NC(=O)[C@H](CCC(N)=O)NC(=O)CN)C(C)C)[C@@H](C)CC)C(=O)N[C@@H](CC(N)=O)C(=O)N[C@@H](CCCNC(=N)N)C(=O)O | 3.62
CC[C@H](C)[C@H](NC(=O)[C@H](C)NC(=O)[C@H](Cc1ccccc1)NC(=O)[C@H](CCC(N)=O)NC(=O)[C@H](CCCN=C(N)N)NC(=O)CNC(=O)[C@@H](NC(=O)[C@H](CCC(N)=O)NC(=O)CN)C(C)C)C(=O)N[C@H](C(=O)NCC(=O)N[C@@H](CC(=O)O)C(=O)N[C@@H](CC(=O)O)C(=O)N[C@H](C(=O)N[C@@H](CC(N)=O)C(=O)N[C@@H](CCCN=C(N)N)C(=O)O)[C@@H](C)CC)[C@@H](C)CC | 0.405
CCCC[C@H](NC(=O)[C@@H](NC(=O)[C@H](C)NC(=O)[C@H](CC(C)C)NC(=O)[C@H](CCC(N)=O)NC(=O)[C@H](CCCN=C(N)N)NC(=O)CNC(=O)[C@@H](NC(=O)[C@H](CCC(N)=O)NC(=O)CN)C(C)C)[C@@H](C)CC)C(=O)NCC(=O)N[C@@H](CC(=O)O)C(=O)N[C@@H](CC(=O)O)C(=O)N[C@H](C(=O)N[C@@H](CC(N)=O)C(=O)N[C@@H](CCCN=C(N)N)C(=O)O)[C@@H](C)CC | 0.655
CC[C@H](C)[C@H](NC(=O)[C@H](C)NC(=O)[C@H](CC(C)C)NC(=O)[C@H](CCC(N)=O)NC(=O)[C@H](CCCN=C(N)N)NC(=O)CNC(=O)[C@H](Cc1ccccc1)NC(=O)[C@H](CCC(N)=O)NC(=O)CN)C(=O)N[C@H](C(=O)NCC(=O)N[C@@H](CC(=O)O)C(=O)N[C@@H](CC(=O)O)C(=O)N[C@H](C(=O)N[C@@H](CC(N)=O)C(=O)N[C@@H](CCCN=C(N)N)C(=O)O)[C@@H](C)CC)[C@@H](C)CC | 0.304
CC[C@H](C)[C@H](NC(=O)[C@H](C)NC(=O)[C@H](CC(C)C)NC(=O)[C@H](CCC(N)=O)NC(=O)[C@H](CCCN=C(N)N)NC(=O)CNC(=O)[C@@H](NC(=O)[C@H](CCC(N)=O)NC(=O)CN)C(C)C)C(=O)N[C@H](C(=O)NCC(=O)N[C@@H](CC(=O)O)C(=O)N[C@@H](CC(=O)O)C(=O)N[C@@H](Cc1cccc2ccccc12)C(=O)N[C@@H](CC(N)=O)C(=O)N[C@@H](CCCN=C(N)N)C(=O)O)[C@@H](C)CC | 0.077
CC[C@H](C)[C@H](NC(=O)[C@H](C)NC(=O)[C@H](CC(C)C)NC(=O)[C@H](CCC(N)=O)NC(=O)[C@H](CCCNC(=N)N)NC(=O)CNC(=O)[C@@H](NC(=O)[C@H](CCC(N)=O)NC(=O)CN)C(C)C)C(=O)N[C@@H](Cc1ccccc1)C(=O)NCC(=O)N[C@@H](CC(=O)O)C(=O)N[C@@H](CC(=O)O)C(=O)N[C@H](C(=O)N[C@@H](CC(N)=O)C(=O)N[C@@H](CCCNC(=N)N)C(=O)O)[C@@H](C)CC | 2.14
CC[C@H](C)[C@H](NC(=O)[C@H](C)NC(=O)[C@H](CC(C)C)NC(=O)[C@H](CCC(N)=O)NC(=O)[C@H](CCCN=C(N)N)NC(=O)CNC(=O)[C@@H](NC(=O)[C@H](CCC(N)=O)NC(=O)CN)C(C)C)C(=O)N[C@H](C(=O)NCC(=O)N[C@@H](CC(=O)O)C(=O)N[C@@H](CC(=O)O)C(=O)N[C@@H](Cc1ccccc1)C(=O)N[C@@H](CC(N)=O)C(=O)N[C@@H](CCCN=C(N)N)C(=O)O)[C@@H](C)CC | 0.054
CC[C@H](C)[C@H](NC(=O)[C@H](C)NC(=O)[C@H](Cc1cccc2ccccc12)NC(=O)[C@H](CCC(N)=O)NC(=O)[C@H](CCCNC(=N)N)NC(=O)CNC(=O)[C@@H](NC(=O)[C@H](CCC(N)=O)NC(=O)CN)C(C)C)C(=O)N[C@H](C(=O)NCC(=O)N[C@@H](CC(=O)O)C(=O)N[C@@H](CC(=O)O)C(=O)N[C@H](C(=O)N[C@@H](CC(N)=O)C(=O)N[C@@H](CCCNC(=N)N)C(=O)O)[C@@H](C)CC)[C@@H](C)CC | > 10
CC[C@H](C)[C@H](NC(=O)[C@H](C)NC(=O)[C@H](Cc1ccc2ccccc2c1)NC(=O)[C@H](CCC(N)=O)NC(=O)[C@H](CCCNC(=N)N)NC(=O)CNC(=O)[C@@H](NC(=O)[C@H](CCC(N)=O)NC(=O)CN)C(C)C)C(=O)N[C@H](C(=O)NCC(=O)N[C@@H](CC(=O)O)C(=O)N[C@@H](CC(=O)O)C(=O)N[C@@H](Cc1ccc(Cl)cc1)C(=O)N[C@@H](CC(N)=O)C(=O)N[C@@H](CCCNC(=N)N)C(=O)O)[C@@H](C)CC (H-GQVGRQ[2Nal]AIIGDD[Phe(4-Cl)]NR-OH) | 0.053
CC[C@H](C)[C@H](NC(=O)[C@H](C)NC(=O)[C@H](CC(C)C)NC(=O)[C@H](CCC(N)=O)NC(=O)[C@H](CCCN=C(N)N)NC(=O)CNC(=O)[C@@H](NC(=O)[C@H](CCC(N)=O)NC(=O)CN)C(C)C)C(=O)N[C@@H](Cc1cccc2ccccc12)C(=O)NCC(=O)N[C@@H](CC(=O)O)C(=O)N[C@@H](CC(=O)O)C(=O)N[C@H](C(=O)N[C@@H](CC(N)=O)C(=O)N[C@@H](CCCN=C(N)N)C(=O)O)[C@@H](C)CC | 0.299
CC[C@H](C)[C@H](NC(=O)[C@H](C)NC(=O)[C@H](CC(C)C)NC(=O)[C@H](CCC(N)=O)NC(=O)[C@H](CCCN=C(N)N)NC(=O)CNC(=O)[C@@H](NC(=O)[C@H](CCC(N)=O)NC(=O)CN)C(C)C)C(=O)N[C@H](C(=O)NCC(=O)N[C@@H](CC(=O)O)C(=O)N[C@@H](CC(=O)O)C(=O)N[C@@H](Cc1ccc(I)cc1)C(=O)N[C@@H](CC(N)=O)C(=O)N[C@@H](CCCN=C(N)N)C(=O)O)[C@@H](C)CC | 0.045
